The results in this text go back to patent publication US20210253562A1, “ACYLSUFONAMIDE COMPOUNDS USEFUL AS EP3 RECEPTOR ANTAGONISTS” (Janssen Pharmaceutica NV, priority 2018, published 2021).

Assay [1] concerns the target T1, CHO cells over-expressing the EP3 receptor (Homo sapiens, UniProt P43115).
T1 construct: expressed in transfected cells; host or cells: CHO cells
T1 sequence (P43115 1-390): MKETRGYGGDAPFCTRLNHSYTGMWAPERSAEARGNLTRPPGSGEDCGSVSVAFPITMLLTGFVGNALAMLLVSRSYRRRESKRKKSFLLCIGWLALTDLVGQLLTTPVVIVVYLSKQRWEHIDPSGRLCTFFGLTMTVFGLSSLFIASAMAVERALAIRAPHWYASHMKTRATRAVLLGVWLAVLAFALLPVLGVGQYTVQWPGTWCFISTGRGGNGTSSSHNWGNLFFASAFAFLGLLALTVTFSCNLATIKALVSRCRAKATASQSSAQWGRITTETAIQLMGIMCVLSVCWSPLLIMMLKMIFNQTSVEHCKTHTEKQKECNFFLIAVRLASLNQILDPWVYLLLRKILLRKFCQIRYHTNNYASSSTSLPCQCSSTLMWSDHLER
Description: CHO cell cAMP assay; EP3 cAMP antagonist dose response (sulprostone reference), HTRF. It counts as cell-based. The following applies: sulprostone 700 nM (EC80) and FSK 2 μM (EC70); read-out: CHO_cAMP IC50. Summed up:
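EP3-overexpressing CHO cells pre-incubated with test compound, then stimulated 30 min at 37 °C with FSK (2 μM, EC70) plus sulprostone (700 nM, EC80); antagonism seen as restored cAMP. cAMP measured by HTRF 665/615 ratio, converted via on-plate standard curve. IC50 from Hill fit of 11-point dosing.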
A general note: Changes in cAMP serve as a functional read-out for many G protein-coupled receptors.

Assay [2] addresses T2, EP3 membrane (EP3 receptor) (Homo sapiens, UniProt P43115).
T2 construct: purchased Millipore HTS092M
T2 sequence (P43115 1-390): T1 sequence (P43115 1-390)
Description: [3H]-PGE2 binding; EP3 competition binding (SPA). Summed up: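 Ki derived from one-site nonlinear regression of scintillation proximity counts after 2 h room-temperature equilibration. Serially diluted (1:3) compounds competed against [3H]-PGE2 (2 nM) for EP3 receptor membranes (2 μg/well) in pH 7.4 Tris buffer with 10 mM MgCl2, 1 mM EDTA, 0.1% DMSO.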

The structures appear in SMILES notation. Read-outs that look alike come from different tables or passages of the source. A value given as a limit tells only on which side of the number the result lay.

Usually IC50 stands for the concentration needed to halve the response being measured. As a reminder, the Ki is a dissociation constant, usually derived from enzyme kinetics or from competition with a known ligand. A higher Ki goes with weaker binding. Turning to `O=C(NC/C(F)=C1/CCCCc2cnn(Cc3ccc(Cl)cc3Cl)c21)NS(=O)(=O)c1ccc(Cl)cc1` [Compound #102, (E)-4-chloro-N-((2-(1-(2,4-dichlorobenzyl)-4,5,6,7-tetrahydrocyclohepta[c]pyrazol-8(1H)-ylidene)-2-fluoroethyl)carbamoyl)benzenesulfonamide], in assay [1], the IC50 is greater than 20000 nM. For the same compound, in assay [2], the Ki was greater than 10000 nM.

In the case of `O=C(C/C=C1\CCCc2cnn(Cc3ccc(Cl)cc3Cl)c21)NS(=O)(=O)c1cc2ccccc2s1` [Compound #25, (E)-N-(benzo[b]thiophen-2-ylsulfonyl)-3-(1-(2,4-dichlorobenzyl)-1,4,5,6-tetrahydro-7H-indazol-7-ylidene)propenamide], the IC50 in assay [1] turned out to be 251 nM. The affinity in assay [2] corresponds to a Ki of 51 nM.

Consider `O=C(NC/C(F)=C1/CCCc2onc(-c3ccc(Cl)cc3)c21)NS(=O)(=O)c1ccc(Cl)cc1` [Compound #96, (E)-4-chloro-N-((2-(3-(4-chlorophenyl)-6,7-dihydrobenzo[d]isoxazol-4(5H)-ylidene)-2-fluoroethyl)carbamoyl)benzenesulfonamide], for which the IC50 in assay [1] is greater than 20000 nM. The Ki in assay [2] is greater than 10000 nM.

Turning to `COc1ccc(S(=O)(=O)NC(=O)CC/C=C2\CCCc3cnn(Cc4ccc(Cl)cc4Cl)c32)cc1` [Compound #30, (E)-4-(1-(2,4-dichlorobenzyl)-1,4,5,6-tetrahydro-7H-indazol-7-ylidene)-N-((4-methoxyphenyl)sulfonyl)butanamide], the IC50 in assay [1] was determined as 35 nM. The affinity in assay [2], expressed as Ki, was 26 nM.

Turning to `O=C(NS(=O)(=O)c1ccc(Cl)cc1)OC/C=C1/c2c(cnn2Cc2ccc(Cl)cc2Cl)CCC1F` (centres unmarked) [Compound #50, (Z)-2-(1-(2,4-dichlorobenzyl)-6-fluoro-1,4,5,6-tetrahydro-7H-indazol-7-ylidene)ethyl ((4-chlorophenyl)sulfonyl)carbamate], the IC50 in assay [1] worked out at 75 nM. In assay [2], this compound yielded a Ki of 29 nM.

Turning to `O=C(NC/C(F)=C1\CCCc2cnn(Cc3ccc(C(F)(F)F)cc3)c21)NS(=O)(=O)c1cc(Cl)c(Cl)s1` [Compound #134, (Z)-4,5-dichloro-N-((2-fluoro-2-(1-(4-(trifluoromethyl)benzyl)-1,4,5,6-tetrahydro-7H-indazol-7-ylidene)ethyl)carbamoyl)thiophene-2-sulfonamide], the IC50 in assay [1] worked out at 52 nM. In addition, the Ki in assay [2] came to 7 nM.

For `COc1ccc(S(=O)(=O)NC(=O)NC/C=C2\COCc3cnn(Cc4ccc(Cl)cc4Cl)c32)cc1` [Compound #62, (Z)—N-((2-(1-(2,4-dichlorobenzyl)-1,4-dihydropyrano[4,3-c]pyrazol-7(6H)-ylidene)ethyl)carbamoyl)-4-methoxybenzenesulfonamide], in assay [1], the IC50 was 245 nM. The affinity in assay [2], expressed as Ki, was 63 nM.

In the case of `O=C(NC/C(F)=C1/CCCn2nnc(Cc3ccccc3)c21)NS(=O)(=O)c1cc(Cl)c(Cl)s1` [Compound #135, (E)-N-((2-(3-benzyl-6,7-dihydro-[1,2,3]triazolo[1,5-a]pyridin-4(5H)-ylidene)-2-fluoroethyl)carbamoyl)-4,5-dichlorothiophene-2-sulfonamide], the IC50 in assay [1] was determined as 4600 nM. This compound also displayed a Ki in assay [2] of 472 nM.

Consider `O=C(NS(=O)(=O)c1cc(Cl)c(Cl)s1)OC/C(F)=C1\CCCc2cnn(Cc3ccc(Cl)cc3Cl)c21` [Compound #34, (Z)-2-(1-(2,4-dichlorobenzyl)-1,4,5,6-tetrahydro-7H-indazol-7-ylidene)-2-fluoroethyl ((4,5-dichlorothiophen-2-yl)sulfonyl)carbamate], for which, in assay [1], the IC50 worked out at 11 nM. Further, in assay [2], the Ki turned out to be 3 nM.

Consider `CN(C/C(F)=C1\COCc2cnn(Cc3ccc(Cl)cc3Cl)c21)C(=O)NS(=O)(=O)c1cc(Cl)c(Cl)s1` [Compound #74, (E)-4,5-dichloro-N-((2-(1-(2,4-dichlorobenzyl)-1,4-dihydropyrano[4,3-c]pyrazol-7(6H)-ylidene)-2-fluoroethyl)(methyl)carbamoyl)thiophene-2-sulfonamide], for which, in assay [1], the IC50 is 31 nM. In assay [2], this compound returned a Ki of 35 nM.

`O=C(CC/C=C1\CCCc2cnn(Cc3ccc(Cl)cc3Cl)c21)NS(=O)(=O)c1ccc(Cl)s1` [Compound #29, (E)-N-((5-chlorothiophen-2-yl)sulfonyl)-4-(1-(2,4-dichlorobenzyl)-1,4,5,6-tetrahydro-7H-indazol-7-ylidene)butanamide]: the IC50 in assay [1] stood at 2 nM. This compound displayed a Ki in assay [2] of 1 nM.

In the case of `O=C(C/C=C1\CCCc2cnn(Cc3ccc(Cl)cc3Cl)c21)NS(=O)(=O)c1cc2ccccc2o1` [Compound #26, (E)-N-(benzofuran-2-ylsulfonyl)-3-(1-(2,4-dichlorobenzyl)-1,4,5,6-tetrahydro-7H-indazol-7-ylidene)propenamide], the IC50 in assay [1] was determined as 699 nM. The same compound had a Ki in assay [2] of 85 nM.

In the case of `O=C(NC/C(F)=C1\CCCc2cnn(Cc3ccc(C(F)(F)F)cc3)c21)NS(=O)(=O)c1cc2ccccc2s1` [Compound #133, (Z)—N-((2-fluoro-2-(1-(4-(trifluoromethyl)benzyl)-1,4,5,6-tetrahydro-7H-indazol-7-ylidene)ethyl)carbamoyl)benzo[b]thiophene-2-sulfonamide], the IC50 in assay [1] turned out to be 1260 nM. The same compound had a Ki in assay [2] of 289 nM.

As for `Cc1nn(Cc2ccc(Cl)cc2Cl)c2c1CCC/C2=C(/F)CNC(=O)NS(=O)(=O)c1cc(Cl)c(Cl)s1` [Compound #109, (Z)-4,5-dichloro-N-((2-(1-(2,4-dichlorobenzyl)-3-methyl-1,4,5,6-tetrahydro-7H-indazol-7-ylidene)-2-fluoroethyl)carbamoyl)thiophene-2-sulfonamide], the half-inhibitory concentration (IC50) in assay [1] was found to be 60 nM. In assay [2], this compound displayed an inhibition constant (Ki) of 7 nM.

Take `O=C(NS(=O)(=O)c1cc(Cl)c(Cl)s1)OC/C=C1\COCc2cnn(Cc3ccc(Cl)cc3Cl)c21` [Compound #46, (Z)-2-(1-(2,4-dichlorobenzyl)-1,4-dihydropyrano[4,3-c]pyrazol-7(6H)-ylidene)ethyl ((4,5-dichlorothiophen-2-yl)sulfonyl)carbamate]: the IC50 in assay [1] is 8 nM. This compound came in with a Ki in assay [2] of 2 nM.

`O=C(NS(=O)(=O)c1ccc(Cl)cc1)OC/C=C1\CCCc2c(C(F)F)nn(Cc3ccc(Cl)cc3Cl)c21` [Compound #32, (E)-2-(1-(2,4-dichlorobenzyl)-3-(difluoromethyl)-1,4,5,6-tetrahydro-7H-indazol-7-ylidene)ethyl ((4-chlorophenyl)sulfonyl)carbamate]: the IC50 in assay [1] is 1300 nM. Also, the affinity in assay [2], expressed as Ki, was 168 nM.

For the compound `O=C(CC/C(F)=C1\COCc2cnn(Cc3ccc(Cl)cc3Cl)c21)NS(=O)(=O)c1cc(Cl)c(Cl)s1` [Compound #61, (E)-4-(1-(2,4-dichlorobenzyl)-1,4-dihydropyrano[4,3-c]pyrazol-7(6H)-ylidene)-N-((4,5-dichlorothiophen-2-yl)sulfonyl)-4-fluorobutanamide], in assay [1], the IC50 was determined as 17 nM. In assay [2], this compound came in with a Ki of 7 nM.

For `O=C(NC/C=C1\CCCc2cnn(-c3cccc(C(F)(F)F)c3)c21)NS(=O)(=O)c1cc(Cl)c(Cl)s1` [Compound #92, (E)-4,5-dichloro-N-((2-(1-(3-(trifluoromethyl)phenyl)-1,4,5,6-tetrahydro-7H-indazol-7-ylidene)ethyl)carbamoyl)thiophene-2-sulfonamide], the IC50 in assay [1] was determined as 214 nM. Further, in assay [2], the Ki stood at 17 nM.

Take `COc1ccc(Br)cc1S(=O)(=O)NC(=O)CC/C=C1\CCCc2cnn(Cc3ccc(Cl)cc3Cl)c21` [Compound #41, (E)-N-((5-bromo-2-methoxyphenyl)sulfonyl)-4-(1-(2,4-dichlorobenzyl)-1,4,5,6-tetrahydro-7H-indazol-7-ylidene)butanamide]: the IC50 in assay [1] came to 9 nM. In addition, the Ki in assay [2] is 6 nM.

Turning to `O=C(NC/C(F)=C1\CCCc2cnn(-c3ccc(C(F)(F)F)cc3)c21)NS(=O)(=O)c1ccc(Cl)s1` [Compound #124, (Z)-5-chloro-N-((2-fluoro-2-(1-(4-(trifluoromethyl)phenyl)-1,4,5,6-tetrahydro-7H-indazol-7-ylidene)ethyl)carbamoyl)thiophene-2-sulfonamide], the IC50 in assay [1] worked out at 798 nM. Also, the affinity in assay [2], expressed as Ki, was 100 nM.

In the case of `O=C(NC/C=C1\COCc2cnn(Cc3ccc(Cl)cc3Cl)c21)NS(=O)(=O)c1cc(Cl)c(Cl)s1` [Compound #49, (Z)-4,5-dichloro-N-((2-(1-(2,4-dichlorobenzyl)-1,4-dihydropyrano[4,3-c]pyrazol-7(6H)-ylidene)ethyl)carbamoyl)thiophene-2-sulfonamide], the IC50 in assay [1] came to 1 nM. The Ki in assay [2] (unit nM) amounted to 0.4 nM.

`COc1ccc(Cl)cc1S(=O)(=O)NC(=O)CC/C=C1\CCCc2cnn(Cc3ccc(Cl)cc3Cl)c21` [Compound #38, (E)-N-((5-chloro-2-methoxyphenyl)sulfonyl)-4-(1-(2,4-dichlorobenzyl)-1,4,5,6-tetrahydro-7H-indazol-7-ylidene)butanamide]: the IC50 in assay [1] worked out at 7 nM. In assay [2], the affinity corresponds to a Ki of 3 nM.
